# Experimental data as given in ChEMBL document CHEMBL4043281, “Development of a peptide-based inducer of protein degradation targeting NOTCH1” (Bioorg Med Chem Lett, 2017).
# Calls of active or inactive are those of the source. The calls are words filed in the database; no cut-off is given here. Positions of bridges follow the written chain, without caps; N, C: chain ends. Non-standard residues stand in square brackets, D forms with d. Residues, ends and D or L forms follow the SMILES beside them. Dip = N[C@H](C(=O)O)C(c1ccccc1)c1ccccc1; Chg = N[C@H](C(=O)O)C1CCCCC1; S5 = C=CCCC[C@](C)(N)C(=O)O; NMeA = CN[C@@H](C)C(=O)O; AEEA = NCCOCCOCC(=O)O; βAla = NCCC(=O)O
# What was measured:
# Homo sapiens [1] = species on record: Homo sapiens; test: Induction of IAP-mediated NOTCH1 protein degradation in human MOLT4 cells assessed as ratio of NOTCH1 to lamin protein level at 20 uM after 6 hrs by Western blot analysis (reference value: 91%); assay type: cell-based
# MOLT-4 [2] = test: Cytotoxicity against human MOLT4 cells at >100 uM; assay type: cell-based
# Homo sapiens [3] = species on record: Homo sapiens; test: Induction of IAP-mediated NOTCH1 protein degradation in human MOLT4 cells assessed as ratio of NOTCH1 to beta-actin protein level at 80 uM after 8 hrs by Western blot analysis (reference value: 100%); assay type: cell-based
# MOLT-4 [4] = test: Induction of CSL protein degradation in human MOLT4 cells assessed as ratio of CSL to lamin protein level at 100 uM after 6 hrs by Western blot analysis (reference value: 111%); assay type: functional
# Homo sapiens [5] = species on record: Homo sapiens; test: Induction of IAP-mediated NOTCH1 protein degradation in human MOLT4 cells assessed as ratio of NOTCH1 to lamin protein level at 70 uM after 6 hrs in presence of proteasome inhibitor MG132 by Western blot analysis (reference value: 100%); assay type: cell-based
# Homo sapiens [6] = species on record: Homo sapiens; test: Induction of IAP-mediated NOTCH1 protein degradation in human MOLT4 cells assessed as ratio of NOTCH1 to lamin protein level at 60 uM after 6 hrs in presence of proteasome inhibitor MG132 by Western blot analysis (reference value: 100%); assay type: cell-based
# Homo sapiens [7] = species on record: Homo sapiens; test: Induction of IAP-mediated NOTCH1 protein degradation in human MOLT4 cells assessed as reduction in c-Myc level at 80 uM by Western blot analysis; assay type: cell-based; details: TDE = time-dependent effect
# Homo sapiens [8] = species on record: Homo sapiens; test: Induction of IAP-mediated NOTCH1 protein degradation in human MOLT4 cells assessed as ratio of NOTCH1 to beta-actin protein level at 80 uM after 10 hrs by Western blot analysis (reference value: 100%); assay type: cell-based
# Homo sapiens [9] = species on record: Homo sapiens; test: Induction of IAP-mediated NOTCH1 protein degradation in human MOLT4 cells assessed as ratio of NOTCH1 to lamin protein level at 80 uM after 6 hrs in presence of proteasome inhibitor MG132 by Western blot analysis (reference value: 100%); assay type: cell-based
# Homo sapiens [10] = species on record: Homo sapiens; test: Induction of IAP-mediated NOTCH1 protein degradation in human MOLT4 cells assessed as ratio of NOTCH1 to beta-actin protein level at 80 uM after 2 hrs by Western blot analysis (reference value: 100%); assay type: cell-based
# Homo sapiens [11] = species on record: Homo sapiens; test: Antagonist activity IAP in human MOLT4 cells assessed as reduction in cIAP1 protein level at 50 to 80 uM after 6 hrs by Western blot analysis; assay type: cell-based
# Homo sapiens [12] = species on record: Homo sapiens; test: Induction of IAP-mediated NOTCH1 protein degradation in human MOLT4 cells assessed as ratio of NOTCH1 to lamin protein level at 50 uM after 6 hrs by Western blot analysis (reference value: 91%); assay type: cell-based
# MOLT-4 [13] = test: Induction of CSL protein degradation in human MOLT4 cells assessed as ratio of CSL to lamin protein level at 20 uM after 6 hrs by Western blot analysis (reference value: 111%); assay type: functional
# Homo sapiens [14] = species on record: Homo sapiens; test: Induction of IAP-mediated NOTCH1 protein degradation in human MOLT4 cells assessed as reduction in c-Myc level by measuring ratio of c-Myc to beta-actin protein level at 80 uM after 10 hrs by Western blot analysis (reference value: 100%); assay type: cell-based
# Homo sapiens [15] = species on record: Homo sapiens; test: Induction of IAP-mediated NOTCH1 protein degradation in human MOLT4 cells assessed as reduction in c-Myc level by measuring ratio of c-Myc to beta-actin protein level at 80 uM after 8 hrs by Western blot analysis (reference value: 100%); assay type: cell-based
# Homo sapiens [16] = species on record: Homo sapiens; test: Induction of IAP-mediated NOTCH1 protein degradation in human MOLT4 cells assessed as ratio of NOTCH1 to lamin protein level at 60 uM after 6 hrs by Western blot analysis (reference value: 100%); assay type: cell-based
# MOLT-4 [17] = test: Induction of CSL protein degradation in human MOLT4 cells assessed as ratio of CSL to lamin protein level at 50 uM after 6 hrs by Western blot analysis (reference value: 100%); assay type: functional
# Homo sapiens [18] = species on record: Homo sapiens; test: Induction of IAP-mediated NOTCH1 protein degradation in human MOLT4 cells assessed as reduction in c-Myc level by measuring ratio of c-Myc to beta-actin protein level at 80 uM after 2 hrs by Western blot analysis (reference value: 100%); assay type: cell-based
# Homo sapiens [19] = species on record: Homo sapiens; test: Induction of IAP-mediated NOTCH1 protein degradation in human MOLT4 cells assessed as ratio of NOTCH1 to lamin protein level at 80 uM after 6 hrs by Western blot analysis (reference value: 100%); assay type: cell-based
# MOLT-4 [20] = test: Induction of CSL protein degradation in human MOLT4 cells assessed as ratio of CSL to lamin protein level at 70 uM after 6 hrs by Western blot analysis (reference value: 100%); assay type: functional
# Homo sapiens [21] = species on record: Homo sapiens; test: Induction of IAP-mediated NOTCH1 protein degradation in human MOLT4 cells assessed as reduction in c-Myc level by measuring ratio of c-Myc to beta-actin protein level at 80 uM after 4 hrs by Western blot analysis (reference value: 100%); assay type: cell-based
# MOLT-4 [22] = test: Induction of CSL protein degradation in human MOLT4 cells assessed as ratio of CSL to lamin protein level at 80 uM after 6 hrs by Western blot analysis (reference value: 100%); assay type: functional
# Homo sapiens [23] = species on record: Homo sapiens; test: Induction of IAP-mediated NOTCH1 protein degradation in human MOLT4 cells assessed as ratio of NOTCH1 to beta-actin protein level at 80 uM after 4 hrs by Western blot analysis (reference value: 100%); assay type: cell-based
# Homo sapiens [24] = species on record: Homo sapiens; test: Induction of IAP-mediated NOTCH1 protein degradation in human MOLT4 cells assessed as ratio of NOTCH1 to lamin protein level at 50 uM after 6 hrs by Western blot analysis (reference value: 100%); assay type: cell-based
# MOLT-4 [25] = test: Induction of CSL protein degradation in human MOLT4 cells assessed as ratio of CSL to lamin protein level at 60 uM after 6 hrs by Western blot analysis (reference value: 100%); assay type: functional
# MOLT-4 [26] = test: Induction of CSL protein degradation in human MOLT4 cells assessed as ratio of CSL to lamin protein level at 50 uM after 6 hrs by Western blot analysis (reference value: 111%); assay type: functional
# Homo sapiens [27] = species on record: Homo sapiens; test: Induction of IAP-mediated NOTCH1 protein degradation in human MOLT4 cells assessed as ratio of NOTCH1 to beta-actin protein level at 80 uM after 6 hrs by Western blot analysis (reference value: 100%); assay type: cell-based
# Homo sapiens [28] = species on record: Homo sapiens; test: Induction of IAP-mediated NOTCH1 protein degradation in human MOLT4 cells assessed as ratio of NOTCH1 to lamin protein level at 100 uM after 6 hrs by Western blot analysis (reference value: 91%); assay type: cell-based
# Homo sapiens [29] = species on record: Homo sapiens; test: Induction of IAP-mediated NOTCH1 protein degradation in human MOLT4 cells assessed as reduction in c-Myc level by measuring ratio of c-Myc to beta-actin protein level at 80 uM after 6 hrs by Western blot analysis (reference value: 100%); assay type: cell-based
# Homo sapiens [30] = species on record: Homo sapiens; test: Induction of IAP-mediated NOTCH1 protein degradation in human MOLT4 cells assessed as ratio of NOTCH1 to lamin protein level at 70 uM after 6 hrs by Western blot analysis (reference value: 100%); assay type: cell-based
smiles,measurement,setting,value
CC[C@H](C)[C@H](NC(=O)[C@H](CCCNC(=N)N)NC(=O)[C@H](CCCNC(=N)N)NC(=O)[C@H](CCCNC(=N)N)NC(=O)[C@H](CC(C)C)NC(=O)[C@H](CCCNC(=N)N)NC(=O)[C@H](CCC(=O)O)NC(=O)CCNC(=O)COCCOCCNC(=O)COCCOCCNC(=O)[C@@H](NC(=O)[C@@H]1CCCN1C(=O)[C@@H](NC(=O)[C@H](C)NC)C1CCCCC1)C(c1ccccc1)c1ccccc1)C(=O)N[C@@]1(C)CCC/C=C\CCC[C@@](C)(C(=O)N[C@@H](CCCNC(=N)N)C(=O)N[C@@H](Cc2cnc[nH]2)C(=O)N[C@@H](Cc2cnc[nH]2)C(=O)N[C@@H](CO)C(=O)N[C@H](C(=O)O)[C@@H](C)O)NC(=O)[C@H](CS)NC(=O)[C@H](CC(C)C)NC1=O (H-[NMeA][Chg]P[Dip][AEEA][AEEA][βAla]ERLRRRI[S5]LC[S5]RHHST-OH; staple (Z) 15-18),Ratio,Homo sapiens [1],99%
same,Activity,MOLT-4 [2],Toxic
same,Ratio,Homo sapiens [3],56%
same,Ratio,MOLT-4 [4],83%
same,Ratio,Homo sapiens [5],108%
same,Ratio,Homo sapiens [6],92%
same,Activity,Homo sapiens [7],Tde
same,Ratio,Homo sapiens [8],43%
same,Ratio,Homo sapiens [9],110%
same,Ratio,Homo sapiens [10],67%
same,inhibition,Homo sapiens [11],Active
same,Ratio,Homo sapiens [12],76%
same,Ratio,MOLT-4 [13],114%
same,Ratio,Homo sapiens [14],43%
same,Ratio,Homo sapiens [15],56%
same,Ratio,Homo sapiens [16],72 to 75%
same,Ratio,MOLT-4 [17],110%
same,Ratio,Homo sapiens [18],62%
same,Ratio,Homo sapiens [19],48 to 67%
same,Ratio,MOLT-4 [20],112%
same,Ratio,Homo sapiens [21],73%
same,Ratio,MOLT-4 [22],118%
same,Ratio,Homo sapiens [23],52%
same,Ratio,Homo sapiens [24],88%
same,Ratio,MOLT-4 [25],108%
same,Ratio,MOLT-4 [26],99%
same,Ratio,Homo sapiens [27],54%
same,Ratio,Homo sapiens [28],30%
same,Ratio,Homo sapiens [29],63%
same,Ratio,Homo sapiens [30],63 to 70%
